Test system: BxPC-3 pancreatic cancer cell line
Assay: In-gel fluorescence imaging of cells labeled by enamine N-oxides
Assay type: cell-based
Description: Cells were seeded at a density of 200,000 cells per well in media [2 mL, RPMI (A431, H460, HeLa, Bx-PC3, MDA-MB-231) or DMEM (U251) supplemented with 5% heat-inactivated human serum (Sigma), penicillin (100 units/mL), and streptomycin (0.1 mg/mL)] in 6-well plates. Cells were incubated at 37° C. under ambient atmosphere with 5% CO2. After 24 h, the media was aspirated and replaced with fresh media [1 mL, RPMI (A431, H460, HeLa, Bx-PC3, MDA-MB-231) or DMEM (U251) supplemented with 5% heat-inactivated human serum, penicillin (100 units/mL), and streptomycin (0.1 mg/mL)] containing enamine N-oxide probe (200 mM in ethanol; 10 μM final concentration). Plates were then incubated at 37° C. under ambient (20% pO2) or various oxygenated conditions (5%, 1%, or 0.1% pO2) with 5% CO2. Oxygenated conditions were maintained using a hypoxia chamber (ProOx C21, Biospherix) in a cell culture incubator. […] PBS (1 mL) was then added to each well and cells were scraped off with a cell scraper. The cell suspensions were placed into microcentrifuge tubes and pelleted by spinning at 10,000×g for 5 minutes at 4° C. The supernatant was then removed, and the pellet was dissolved with an SDS solution (100 μL, 1% SDS in 50 mM Tris buffer, pH 8.0). The protein concentration was determined by BCA assay following the manufacturer's protocol (Pierce). The sample was then labeled using the copper-catalyzed azide-alkyne cycloaddition (CuAAC). […] The dried pellet was then resuspended in an SDS solution (50 μL, 1% SDS in 50 mM Tris, pH 8.0), and the protein concentration was determined by BCA assay. […] In-gel fluorescence was visualized by a laser scanner (Typhoon™ FLA 9500, GE) and quantified using ImageJ software. […] Detection was mediated by an anti-rabbit IR680-dye conjugated secondary antibody (LI-COR Biosciences, 925-68071) and imaged using a fluorescence scanner (Odyssey CLx, LI-COR Biosciences).

| SMILES | labeling in cell culture (oxygen dependence) (BxPC-3, 48 h) | oxygen tension of probe activation (BxPC-3, over 48 h, CuAAC with TAMRA-azide) | labeling of cells under normoxia and hypoxia (Bx-PC3 cells, 10 μM, 12 h, in-gel fluorescence after CuAAC with TAMRA-azide) |
| --- | --- | --- | --- |
| C#CCCCCC(F)/C=C/[N+]([O-])(CC)CC (stereo not drawn) [probe 39, (E)-N,N-diethyl-3-fluoronon-1-en-8-yn-1-amine oxide] | oxygen-dependent labeling | ca. 1 % pO2 |  |
| C#CCN(CCCCCC(F)/C=C/[N+]([O-])(CC)CC)C(=O)c1ccc(C2=c3cc4c(cc3[Si](C)(C)c3cc5c(cc32)CCN5C)=[N+](C)CC4)c(C)c1 (stereo not drawn) [probe 42, Si700-enamine N-oxide] |  |  | labeled Bx-PC3 cells in a hypoxia-dependent manner |
